The target of one data set is T1, Aminopeptidase N (Sus scrofa, UniProt P15145).
T1 sequence (P15145 whole entry): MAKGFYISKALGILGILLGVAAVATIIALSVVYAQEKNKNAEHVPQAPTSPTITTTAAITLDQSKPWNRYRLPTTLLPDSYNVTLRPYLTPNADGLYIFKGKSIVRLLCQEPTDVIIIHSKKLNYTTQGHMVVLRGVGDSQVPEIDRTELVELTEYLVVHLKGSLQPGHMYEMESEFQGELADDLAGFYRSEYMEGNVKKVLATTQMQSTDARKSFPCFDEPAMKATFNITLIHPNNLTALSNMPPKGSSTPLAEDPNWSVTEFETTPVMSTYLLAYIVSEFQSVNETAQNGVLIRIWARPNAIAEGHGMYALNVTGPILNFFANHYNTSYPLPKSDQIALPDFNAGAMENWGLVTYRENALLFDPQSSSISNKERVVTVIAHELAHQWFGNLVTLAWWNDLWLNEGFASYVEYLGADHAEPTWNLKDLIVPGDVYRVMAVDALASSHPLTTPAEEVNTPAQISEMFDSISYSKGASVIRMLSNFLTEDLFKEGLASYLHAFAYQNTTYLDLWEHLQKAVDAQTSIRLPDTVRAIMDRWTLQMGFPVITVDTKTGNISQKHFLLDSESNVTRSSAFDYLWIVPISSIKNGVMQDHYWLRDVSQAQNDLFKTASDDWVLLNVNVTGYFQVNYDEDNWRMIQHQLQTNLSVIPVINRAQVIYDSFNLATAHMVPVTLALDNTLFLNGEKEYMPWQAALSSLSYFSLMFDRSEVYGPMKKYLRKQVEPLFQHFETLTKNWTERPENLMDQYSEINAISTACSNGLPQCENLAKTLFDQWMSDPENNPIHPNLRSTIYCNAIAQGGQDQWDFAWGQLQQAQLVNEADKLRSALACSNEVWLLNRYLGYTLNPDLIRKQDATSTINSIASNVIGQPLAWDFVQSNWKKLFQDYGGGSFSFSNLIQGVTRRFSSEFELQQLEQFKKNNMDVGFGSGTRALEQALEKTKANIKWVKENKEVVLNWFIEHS
The experiment in a line: Inhibition of porcine kidney microsome aminopeptidase using L-Leu-p-nitroanilide as substrate after 30 mins.

Data set [1] concerns MDA-MB-231. The experiment in a line: Antimetastatic activity in human MDA-MB-231 cells assessed as inhibition of cell invasion at 300 uM after 20 hrs by matrigel assay. It counts as functional, cell-based.
The subject of data set [2] is MDA-MB-231. As to the kind of experiment: Induction of apoptosis in human MDA-MB-231 cells assessed as early apoptotic cells at 300 uM after 24 hrs using annexin-V-FITC staining by flow cytometry (reference value: 1.69%). It counts as functional.
The subject of data set [3] is MDA-MB-231. As to the kind of experiment: Induction of apoptosis in human MDA-MB-231 cells assessed as late apoptotic cells at 300 uM after 24 hrs using annexin-V-FITC staining by flow cytometry (reference value: 1.69%). It counts as functional. (Flow cytometry measures light scatter and fluorescence of single cells or particles in a stream.)
Data set [4] deals with MDA-MB-231. The experiment in a line: Cell cycle arrest in human MDA-MB-231 cells assessed as accumulation at G2 phase at 300 uM after 48 hrs using propidium iodide staining by flow cytometry (reference value: 18.35%). It counts as functional.
Data set [5] has as its system MDA-MB-231. As to the kind of experiment: Cell cycle arrest in human MDA-MB-231 cells assessed as accumulation at S phase at 300 uM after 48 hrs using propidium iodide staining by flow cytometry (reference value: 33.25%). Format: functional.
The test system of data set [6] is MDA-MB-231. The experiment in a line: Cell cycle arrest in human MDA-MB-231 cells assessed as accumulation at G1 phase at 300 uM after 48 hrs using propidium iodide staining by flow cytometry (reference value: 48.40%). It counts as functional.
The test system of the next data set is A549. As to the kind of experiment: Cytotoxicity against human A549 cells after 48 hrs by MTT assay. Conditions: A549, 48 h. On the technique in general: Tetrazolium dyes change colour on reduction, which living cells bring about.
The subject of the next data set is NIH3T3. As to the kind of experiment: Cytotoxicity against mouse NIH/3T3 cells after 48 hrs by MTT assay. Format: cell-based.
The test system of a further data set is PC-3. As to the kind of experiment: Cytotoxicity against human PC3 cells after 48 hrs by MTT assay. As to conditions: PC-3, 48 h.
The test system of data set [7] is SK-OV-3. The experiment in a line: Cytotoxicity against human SKOV3 cells after 48 hrs by MTT assay. Conditions: SK-OV-3, 48 h.
The next data set concerns K562. As to the kind of experiment: Cytotoxicity against human K562 cells after 48 hrs by MTT assay. Conditions: K562, 48 h.
Data set [8] deals with NB-4. The experiment in a line: Cytotoxicity against human NB4 cells after 48 hrs by MTT assay. Conditions: NB-4, 48 h.
In data set [9] the test system is HL-60. As to the kind of experiment: Cytotoxicity against human HL60 cells after 48 hrs by MTT assay. Conditions: HL-60, 48 h.
For data set [10], the system named is HeLa. The experiment in a line: Cytotoxicity against human HeLa cells after 48 hrs by MTT assay.
The nature of data set [11]: Cytotoxicity against human ES2 cells after 48 hrs by MTT assay. Conditions: ES-2, 48 h.
The next data set concerns HCT-116. The experiment in a line: Cytotoxicity against human HCT116 cells after 48 hrs by MTT assay. Conditions: HCT-116, 48 h.
Data set [12] relates to MCF7. The experiment in a line: Cytotoxicity against human MCF7 cells after 48 hrs by MTT assay. Conditions: MCF7, 48 h.
Data set [13] concerns MDA-MB-231. As to the kind of experiment: Cytotoxicity against human MDA-MB-231 cells after 48 hrs by MTT assay. As to conditions: MDA-MB-231, 48 h.
Data set [14] concerns MDA-MB-231. The experiment in a line: Antimetastatic activity in human MDA-MB-231 cells assessed as inhibition of cell invasion at 20 uM after 20 hrs by matrigel assay. It counts as functional, cell-based.
Data set [15] has as its system MDA-MB-231. The experiment in a line: Induction of apoptosis in human MDA-MB-231 cells assessed as early apoptotic cells at 20 uM after 24 hrs using annexin-V-FITC staining by flow cytometry (reference value: 1.69%). It counts as functional.
The subject of data set [16] is MDA-MB-231. The experiment in a line: Induction of apoptosis in human MDA-MB-231 cells assessed as late apoptotic cells at 20 uM after 24 hrs using annexin-V-FITC staining by flow cytometry (reference value: 1.69%). It counts as functional.
The subject of data set [17] is MDA-MB-231. The experiment in a line: Cell cycle arrest in human MDA-MB-231 cells assessed as accumulation at G2 phase at 20 uM after 48 hrs using propidium iodide staining by flow cytometry (reference value: 18.35%). Format: functional.
In data set [18] the test system is MDA-MB-231. As to the kind of experiment: Cell cycle arrest in human MDA-MB-231 cells assessed as accumulation at S phase at 20 uM after 48 hrs using propidium iodide staining by flow cytometry (reference value: 33.25%). It counts as functional.
Data set [19] relates to MDA-MB-231. As to the kind of experiment: Cell cycle arrest in human MDA-MB-231 cells assessed as accumulation at G1 phase at 20 uM after 48 hrs using propidium iodide staining by flow cytometry (reference value: 48.40%). Format: functional.
Data set [20] concerns NB-4. As to the kind of experiment: Cytotoxicity against human NB4 cells after 48 hrs by MTT assay.
The test system of the next data set is ES2. The experiment in a line: Cytotoxicity against human ES2 cells after 48 hrs by MTT assay.
Data set [21] concerns HL-60. As to the kind of experiment: Cytotoxicity against human HL60 cells after 48 hrs by MTT assay.
In data set [22] the test system is HeLa. The experiment in a line: Cytotoxicity against human HeLa cells after 48 hrs by MTT assay.
Data set [23] relates to MCF7. As to the kind of experiment: Cytotoxicity against human MCF7 cells after 48 hrs by MTT assay.
In data set [24] the test system is SK-OV-3. As to the kind of experiment: Cytotoxicity against human SKOV3 cells after 48 hrs by MTT assay.

What is called IC50 is the point on the concentration scale where inhibition reaches its midpoint. Read a high IC50 as lower potency.

The source made the active and inactive calls. No cut-off for these calls is given here. Bounds are passed on as bounds.

Consider `NC(=S)NNC(=O)c1ccccc1C(=O)O`, for which, on Aminopeptidase N, the IC50 is above 1000 µM.
As for `O=C(O)COc1ccc(/C=N/n2c(COc3ccccc3)nc3ccccc3c2=O)cc1`, the midpoint of inhibition against Aminopeptidase N, the IC50, lay at 188 µM.
On the same count and under the same terms, the figure for `NS(=O)(=O)c1ccc(-n2cccc2/C=C2/C(=O)NN(c3ccc(Cl)cc3)C2=O)cc1` is above 1000 µM.
On the same count and under the same terms, the figure for `O=C1NC(=O)C(=NNc2cccc(C(=O)O)c2)C(=O)N1` is above 1000 µM.
Same read-out and setting: the figure for `NNC(=O)/C(=C/c1ccc([N+](=O)[O-])cc1)NC(=O)c1ccc(Br)cc1` is 438 µM; for `Cc1[nH]cnc1/C=N/NC(N)=S` it is above 1000 µM; for `CCOC(=O)/C(N)=N/NS(=O)(=O)c1ccc(C)cc1` it is 321 µM.
`CC(C)C[C@H](NC(=O)[C@@H](O)[C@H](N)Cc1ccccc1)C(=O)O` [UBENIMEX]: the result with MDA-MB-231 [1] was Active. In addition, the Activity came to 8.54% with MDA-MB-231 [2]; 2.14% in the data set on MDA-MB-231 [3]; 7.03% in the data set on MDA-MB-231 [4]; 15.06% in the data set with MDA-MB-231 [5]; 77.91% with MDA-MB-231 [6]. Also, the IC50 is 513 µM with A549; above 1000 µM with NIH3T3 (Mus musculus, NIH3T3, 48 h); 399 µM in the data set with PC-3; above 1000 µM with SK-OV-3 [7]; 136 µM in the data set with K562; 221 µM in the data set on NB-4 [8]. Also, the IC50 in the data set on HL-60 [9] is 86.4 µM; in the data set with HeLa [10] it was 155 µM; in [11], 74.5 µM; in the data set on HCT-116 it was above 1000 µM; with MCF7 [12], above 1000 µM; in the data set on MDA-MB-231 [13], 50.6 µM.
Consider `O=C(CN1C(=O)C2(OCCO2)c2cc(Br)ccc21)NO`, for which the result with MDA-MB-231 [14] was Active. Further, the Activity in the data set with MDA-MB-231 [15] is 4.99%; in the data set on MDA-MB-231 [16] it was 5.35%; with MDA-MB-231 [17], 3.83%; with MDA-MB-231 [18], 2.9%; with MDA-MB-231 [19], 93.27%; in the data set on NIH3T3 (mouse, nih3t3, 48 h), “Dose-dependent effect”. For the same compound, the Activity result in the data set with NB-4 [20], in the data set on ES2, with HL-60 [21], with HeLa [22], with MCF7 [23] and in the data set on SK-OV-3 [24] was “Dose-dependent effect” each time.
In turn, `CC(=O)NC(=S)NNC(=O)COc1ccc(Br)cc1` displayed an IC50 against Aminopeptidase N of 227 µM.
The same measure, in the same setting: for `O=C1Nc2ccccc2/C1=C1/SC(=S)N(NC(=O)c2cccc(O)c2)C1=O` the value was 170 µM; for `CC[C@H](N)[C@H](O)c1ccc(OC)cc1`, above 1000 µM.
Still for that read-out and setting: for `Nn1c(COc2ccccc2)n[nH]c1=S` the value was 424 µM; for `O=C1NC(=O)C(=NNc2cc([N+](=O)[O-])ccc2O)C(=O)N1`, above 1000 µM.
The same measure, in the same setting: the figure for `C=CCN/C(S)=N/C=C1C(=O)NC(=O)NC1=O` is 65.9 µM; for `COc1cc(/C=C2/C(=O)NC(=O)N(Cc3ccc(F)cc3)C2=O)cc(OC)c1O` it is 78.9 µM.
In turn, `Cc1cc(/C=N/Nc2ccc([N+](=O)[O-])cc2[N+](=O)[O-])c(C)n1-c1ccc(S(N)(=O)=O)cc1` returned an IC50 against Aminopeptidase N above 1000 µM.
Same read-out and setting: for `Nc1nc2c(ncn2S(=O)(=O)c2cccc(C(=O)O)c2)c(=O)[nH]1` the value was 202 µM.
Regarding `NC(=O)c1ccccc1NC(=O)c1ccccc1C(=O)O`, the IC50 on Aminopeptidase N turned out to be 66.3 µM.
